The source of these data is patent publication EP4512427A1, “ANTIBODY-DRUG CONJUGATES BASED ON MOLECULAR GLUE DEGRADERS AND USES THEREOF” (Mablink Bioscience, priority 2023, dated 2025).

Series [1] relates to cancerous human cell lines. As to the kind of experiment: In vitro cytotoxicity assay (MTT), side-by-side comparisons over the cell line panel. It is filed as cell-based. The note with it: side-by-side comparison (Figures 1-3, Table 3), result in words. Here is the method: In vitro cytotoxicity of compounds of the disclosure was assessed on several cancerous human cell lines. Cells were plated in 96-well plates at an appropriate density depending on the cell line (between 1000 and 10 000 cells/well in 100µL of appropriate culture media) and incubated at 37°C for 24 hours. Serial dilutions of the tested compound previously dissolved in culture media (50µL) were added, and incubation was carried at 37°C out for 6 days. MTT (5mg/mL in PBS, 20µL, Sigma-Aldrich) was added into the wells, and incubation was continued for 1 to 4 hours at 37°C. Culture media was then carefully removed, and well content was homogeneously dissolved with acidified isopropanol. Absorbance values were measured on a microplate reader using a wavelength of 570 nm (with a reference wavelength of 690 nm). The IC50 concentration values compared to untreated control cells were determined using inhibition dose response curve fitting (GraphPad Prism 9). Exatecan mesylate (cat#HY-13631A) and CR8 (CAS# 294646-77-8; cat#HY-18340) were purchased from MedChemExpress (China).

The next series concerns SKBR-3. Nature of the series: In vitro cytotoxicity assay (MTT). The note with it: 6 days incubation. It is filed as cell-based, human. The procedure, abridged:
(§1)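 Cancer cell lines seeded (1000–10 000 cells/well), allowed 24 h at 37°C, then exposed to serial compound dilutions for 6 days at 37°C. Viability by MTT (1–4 h), formazan dissolved in acidified isopropanol, absorbance 570 nm (ref. 690 nm); IC50 from dose-response fit versus untreated cells.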

The test system of the next series is JIMT-1. As to the kind of experiment: In vitro cytotoxicity assay (MTT). Particulars: 6 days incubation. It is filed as cell-based, human. The method in brief:
as §1

The next series concerns MDA-MB-453. As to the kind of experiment: In vitro cytotoxicity assay (MTT). It is filed as cell-based, human. The note with it: 6 days incubation. The method in brief:
as §1

In another series the test system is BT-474. As to the kind of experiment: In vitro cytotoxicity assay (MTT). The series is classed as cell-based, human. Particulars: BT-474; 6 days incubation, MTT. The method in brief: as §1
The subject of another series is MDA-MB-231. As to the kind of experiment: In vitro cytotoxicity assay (MTT). It is filed as cell-based, human. The note with it: 6 days incubation. The procedure, abridged: as §1
For a further series, the system named is NCI-N87. Nature of the series: In vitro cytotoxicity assay (MTT). It is filed as cell-based, human. Particulars: 6 days incubation. The procedure, abridged:
as §1

A further series deals with JIMT-1 cells. As to the kind of experiment: Cell cycle arrest assessment (propidium iodide). It is filed as cell-based, human. The protocol:
1×10^6 JIMT-1 cells were plated in 3mL of DMEM/FBS 90:10 (v/v) in 6-well plates and incubated overnight. Cells were treated with the compound 2384 of the invention or with CR8 for 24h. Cells were then harvested and washed three times with PBS. Cells were suspended into 300µL of propidium iodide working solution (0.05mg/mL) and incubated for 45 minutes at 4°C in the dark. Analysis was performed using a BD Fortessa flow cytometer controlled by BD FACSDiva software (BD Biosciences) and data were analyzed using FlowJo software (BD Bioscience).

Another series relates to CycK. As to the kind of experiment: CycK protein quantification by Western Blot. The series is classed as cell-based, human. The note with it: 10nM, 2h treatment of JIMT-1 cells. Here is the method:
1×10^6 JIMT-1 cells were plated in 3mL of DMEM/FBS 90:10 (v/v) in 6-well plates and incubated overnight. Cells were treated with the compound 2384 of the invention with or without the proteasome inhibitor MG-132 (MedChemExpress, Cat HY-13259) for 2h. Cells were harvested, and protein were extracted using complete RIPA buffer (RIPA buffer, 1 mM DTT, 1M NaF, 100 mM sodium orthovanadate, phosphatase inhibitor buffer and protease inhibitors) for 1 hour on ice. Lysate were centrifuged 15min at 12 000g at 4°C. and proteins were mixed with 4x Laemmli Sample Buffer (Bio-Rad), heated at 95 °C for 5 mins and separated by SDS PAGE (PROTEAN TGX Stain-Free Gels, Bio-Rad). Proteins were then transferred onto PVDF membrane (iBlot®2 PVDF stacks, Invitrogen) using the iBlot2 device (Invitrogen) and blocked with TBS buffer (Intercept® Blocking Buffer, LI-COR Biosciences). Primary antibodies were incubated overnight at 4°C and secondary antibodies (IRDye Infrared Dyes from LI-COR Biosciences) 1 hour at room temperature. Used primary antibody were: anti-CycK (cat#A301-939A, Bethyl Laboratories, dil. 1:1000) and anti-β-actin (cat#A5441, Sigma-Aldrich, dil. 1:5000). Membranes were scanned using a c500 Imaging System (Azure Biosystems) and densitometric quantification were performed using imaged software. Protein levels were normalized against β-actin.
(A western blot detects proteins with antibodies after separation by electrophoresis.)

Molecules are shown by their SMILES. pIC50: −log10 of the molar value.

The term pIC50 denotes the IC50 on a negative log10 scale, so that one unit is a factor of ten. A high value points to a small IC50. With `CC[C@H](CO)Nc1nc(NCc2ccc(-c3ccccn3)cc2)c2ncn(C(C)C)c2n1` [CR8, reference compound], the “in vitro cytotoxicity potency” value in series [1] is on record as “potencies in the high nanomolar range”. In addition, the pIC50 with SKBR-3 is 7.51; with JIMT-1, 7.60; in the series with MDA-MB-453 it was 7.39; in the series on BT-474, 7.74; with MDA-MB-231, 7.98; in the series on NCI-N87 it was 7.21. The cell cycle analysis result is “arrest in G2/M phase” with JIMT-1 cells (24h at 50 nM); “no impact on cell cycle” in the series with JIMT-1 cells (24h at 2, 5, and 10 nM). The CycK degradation result in the series with CycK is “no CycK was observed”.
